US20010031865A1, “Substituted 3-phenyluracils” (priority 1991, published 2001)

What was measured:
[1] = tested on: undesirable broad-leaved plants and grasses; assay: Greenhouse herbicidal test, postemergence treatment; assay type: in vivo; settings: for control of undesirable broad-leaved plants and grasses: postemergence use of 0.5 kg/ha, greenhouse
Method: The seeds of the test plants were sown separately according to species. For the purpose of the postemergence treatment, the test plants were grown in the test vessels themselves or were planted in the test vessels a few days beforehand. The active ingredients suspended or emulsified in water were not applied until a height of growth of from 3 to 15 cm, depending on the form of growth. The plants were kept at 10-25° C. or 20-35° C., according to species. The test periods extended over from 2 to 4 weeks. During this time, the plants were tended and their reaction to the individual treatments was evaluated. Rating was based on a scale from 0 to 100. 100 means no emergence of the plants or complete destruction of at least the above-ground parts and 0 means no damage on normal growth. The plants used in the greenhouse experiments consisted of the following species: [table]

[2] = tested on: young, 4-leaved cotton plants of the Stoneville 825 variety; assay: Defoliation of young cotton plants (Use Example 1); assay type: in vivo; settings: after 13 days
Method: The comparative agent used was
A 6,7-dihydrodipyrido[1,2-alpha:2′, 1′-c]pyridilium as the dibromide monohydrate salt (common name: Diquat®).
The comparative agent was used in the form-of the preformulated commercial product.
The test plants used were young, 4-leaved cotton plants (without cotyledons) of the Stoneville 825 variety, which were grown under greenhouse conditions (relative humidity from 50 to 70%; day/night temperature 27/20° C.).
The amount of water applied was equivalent to […]. After 13 days, the number of dropped leaves and the degree of defoliation in % were determined.

[3] = converted application rate 0.10 kg/ha

| melting point [°C] | SMILES | control of undesirable broad-leaved plants and grasses [1] | further results |
| --- | --- | --- | --- |
| – | Cn1c(C(F)(F)F)cc(=O)n(-c2ccc(Cl)c(C3OCCCO3)c2)c1=O [compound 2.1, 3-[4-Chloro-3-(1,3-dioxan-2-yl)-phenyl]-2,4-dioxo-1-methyl-6-trifluoromethyl-1,2,3,4-tetrahydropyrimidine] | very readily controlled | – |
| 219 to 221 | CCOC(=O)N/N=C/c1cc(-n2c(=O)cc(C(F)(F)F)n(C)c2=O)ccc1Cl [compound 1.91, 3-(4-Chloro-3-ethoxycarbonylhydrazonomethylphenyl)-2,4-dioxo-1-methyl-6-trifluoromethyl-1,2,3,4-tetrahydropyrimidine] | – | – |
| – | COC(=O)/C(Cl)=C/c1cc(-n2c(OC)nc(C(F)(F)F)cc2=O)ccc1Cl [compound 3.1, 3-[4-Chloro-3-(2-chloro-2-methoxycarbonylethenyl)-phenyl]-2-methoxy-4-oxo-6-trifluoromethyl-3,4-dihydro-pyrimidine] | – | control of undesirable broad-leaved plants ([1]; postemergence method, application rates of 0.06 and 0.03 kg/ha): very readily controlled; Defoliation ([2]; converted application rate 0.05 kg/ha): 53%; Defoliation [2, 3]: 73% |
| – | COC(=O)/C(C#N)=C/c1cc(-n2c(=O)cc(C(F)(F)F)n(C)c2=O)ccc1Cl [compound 1.22, 3-[4-Chloro-3-(2-cyano-2-methoxycarbonylethenyl)-phenyl]-2,4-dioxo-1-methyl-6-trifluoromethyl-1,2,3,4-tetrahydropyrimidine] | very readily controlled | – |
| 132 to 134 | CCO/N=C/c1cc(-n2c(=O)cc(C(F)(F)F)n(C)c2=O)ccc1Cl [compound 1.5, 3-[4-Chloro-3-(ethoximinomethyl)-phenyl]-2,4-dioxo-1-methyl-6-trifluoromethyl-1,2,3,4-tetrahydropyrimidine] | very readily controlled | – |
| – | c1cc[n+]2c(c1)-c1cccc[n+]1CC2 [A, 6,7-dihydrodipyrido[1,2-alpha:2′, 1′-c]pyridilium, reference compound] | – | Defoliation [2, 3]: 0% |
| – | Cn1c(C(F)(F)F)cc(=O)n(-c2ccc(Cl)c(C=O)c2)c1=O [compound 1.1, 3-(4-Chloro-3-formylphenyl)-2,4-dioxo-1-methyl-6-trifluoromethyl-1,2,3,4-tetrahydropyrimidine] | very readily controlled | – |
| – | CCCCOC(=O)/C(Cl)=C/c1cc(-n2c(=O)cc(C(F)(F)F)n(C)c2=O)ccc1Cl [compound 1.15, 3-[4-Chloro-3-(2-chloro-2-butoxycarbonylethen-1-yl)-phenyl]-2,4-dioxo-1-methyl-6-trifluoromethyl-1,2,3,4-tetrahydropyrimidine] | very readily controlled | – |
| 221 to 223 | CCO/N=C/c1cc(-n2c(=O)cc(C(F)(F)F)[nH]c2=O)ccc1Cl [compound 1.4, 3-[4-Chloro-3-(ethoximinomethyl)-phenyl]-2,4-dioxo-6-trifluoromethyl-1,2,3,4-tetrahydropyrimidine] | – | – |
